The values below come from ChEMBL document CHEMBL1129432, “Structure-activity relationships of a series of novel (piperazinylbutyl)thiazolidinone antipsychotic agents related to 3-[4-[4-(6-fluorobenzo[b]thien-3-yl)-1-piperazinyl]butyl]-2,5,5- trimethyl-4-thiazolidinone maleate” (J Med Chem, 1996).

Assay [1] has as its target Serotonin 2 (5-HT2) receptor (Rattus norvegicus, UniProt P30994+P08909+P14842). The experiment in a line: Binding affinity towards serotonin 5-HT2 receptor was determined in rat cortex using [3H]spiperone as ligand.
The target in a further assay is D(2) dopamine receptor (Rattus norvegicus, UniProt P61169). Put plainly: Binding affinity towards Dopamine receptor D2 was determined in rat striatum using [3H]- spiperone as radioligand. In kind it is tissue-based.
Assay [2] deals with T1, 5-hydroxytryptamine receptor 1A (Rattus norvegicus, UniProt P19327).
T1 sequence (P19327 whole entry): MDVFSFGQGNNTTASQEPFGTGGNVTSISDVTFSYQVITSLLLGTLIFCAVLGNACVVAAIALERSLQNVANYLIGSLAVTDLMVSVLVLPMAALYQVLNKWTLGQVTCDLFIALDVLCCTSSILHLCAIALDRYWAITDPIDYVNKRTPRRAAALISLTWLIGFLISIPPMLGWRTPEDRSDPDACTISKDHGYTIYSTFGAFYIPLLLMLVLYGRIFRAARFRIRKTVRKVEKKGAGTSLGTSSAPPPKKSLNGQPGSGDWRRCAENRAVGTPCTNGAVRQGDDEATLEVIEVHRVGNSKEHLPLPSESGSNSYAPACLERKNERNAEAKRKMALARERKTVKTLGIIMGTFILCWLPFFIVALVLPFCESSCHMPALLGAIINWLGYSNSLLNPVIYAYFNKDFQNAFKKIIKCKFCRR
The experiment in a line: Binding affinity towards serotonin 5-HT1A receptor was determined in rat hippocampus using [3H]8-OH-DPAT as ligand. The format is tissue-based.

The nature of assay [3]: Intraperitoneal effective dose required for inhibition of apomorphine-induced stereotypy in rat. The format is functional. The following applies: ip.

D(2) dopamine receptor, sequence (P61169 whole entry): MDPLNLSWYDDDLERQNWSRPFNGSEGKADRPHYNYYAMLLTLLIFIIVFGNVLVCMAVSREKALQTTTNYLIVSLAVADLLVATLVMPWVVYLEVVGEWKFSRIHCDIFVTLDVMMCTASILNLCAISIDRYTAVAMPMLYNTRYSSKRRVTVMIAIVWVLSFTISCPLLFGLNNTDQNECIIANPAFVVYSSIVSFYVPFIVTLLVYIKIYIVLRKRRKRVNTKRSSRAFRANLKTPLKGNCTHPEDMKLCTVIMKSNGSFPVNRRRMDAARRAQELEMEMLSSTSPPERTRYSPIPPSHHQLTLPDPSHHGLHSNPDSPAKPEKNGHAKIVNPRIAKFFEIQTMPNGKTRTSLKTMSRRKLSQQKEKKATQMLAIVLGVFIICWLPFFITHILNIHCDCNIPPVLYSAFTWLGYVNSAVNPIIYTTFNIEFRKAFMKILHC

Usually IC50 stands for the concentration that gives 50% inhibition. For `Cc1cccc(N2CCN(CCCCN3C(=O)C(C)(C)SC3(C)C)CC2)c1`, the results for the IC50 (in assay [1]; at D(2) dopamine receptor; in assay [2]) were 0.439 µM, 1.84 µM and 0.038 µM, respectively.
In the case of `O=C1CSCN1CCCCN1CCN(c2ccc(Cl)cc2)CC1`, the results for the IC50 (on D(2) dopamine receptor; in assay [2]) were 8.76 µM and 1.28 µM, respectively.
Turning to `CC1(C)SCN(CCCCN2CCN(c3nc4ccccc4s3)CC2)C1=O`, the IC50 in assay [1] was determined as 2.31 µM; in assay [2] it was 1.37 µM.
As for `O=C1CSCN1CCCCN1CCN(c2cccc(Cl)c2)CC1`, the results for the IC50 (at D(2) dopamine receptor; in assay [2]) were 2.21 µM and 0.057 µM, respectively.
`O=C1CSCN1CCCCN1CCN(c2ccccc2Cl)CC1`: the IC50 on D(2) dopamine receptor was determined as 0.652 µM; in assay [2], 0.023 µM.
In assay [1], `CC1SC(C)(C)C(=O)N1CCCCN1CCN(c2nsc3cc(Cl)ccc23)CC1` (centres undefined) came in with an IC50 of 0.271 µM.
In turn, `CC1(C)SCC(=O)N1CCCCN1CCN(c2cccc(Cl)c2)CC1` had an IC50 at D(2) dopamine receptor of 0.835 µM.
For orientation: ED50 means the midpoint of the dose-response relation. For the compound `CC1SC2(CCCC2)C(=O)N1CCCCN1CCN(c2cn(-c3ccccc3)c3ccccc23)CC1` (centres undefined), the IC50 worked out at 0.0981 µM in assay [1], 0.356 µM at D(2) dopamine receptor and 11.7 µM in assay [2]. For the same compound, in assay [3], the ED50 stood at 41.7 mg/kg.
`O=C1CSCN1CCCCN1CCN(c2nsc3ccccc23)CC1`: the IC50 in assay [1] was 0.007 µM; on D(2) dopamine receptor, 0.224 µM; in assay [2], 0.011 µM.
`COc1ccccc1N1CCN(CCCCN2CSC(C)C2=O)CC1` (centres undefined) had an IC50 in assay [2] of 0.22 µM.
`COc1ccccc1N1CCN(CCCCN2C(=O)C(C)(C)SC2(C)C)CC1`: in assay [2], the IC50 was determined as 0.018 µM.
With `COc1ccccc1N1CCN(CCCCN2C(=O)CSC2(C)C)CC1`, the IC50 was 0.514 µM on D(2) dopamine receptor and 0.01 µM in assay [2].
The matching figures for `Cc1cccc(N2CCN(CCCCN3C(=O)CSC3(C)C)CC2)c1`: 3.75 µM and 0.026 µM.
On to `Cc1cccc(N2CCN(CCCCN3CSCC3=O)CC2)c1C`, for which the IC50 on D(2) dopamine receptor amounted to 0.778 µM; in assay [2], 0.083 µM.
As for `O=C1CSCN1CCCCN1CCN(c2cccc(C(F)(F)F)c2)CC1`, the IC50 at D(2) dopamine receptor was determined as 1.96 µM; in assay [2], 0.034 µM.
`Cc1cccc(N2CCN(CCCCN3CSC(C)(C)C3=O)CC2)c1C`: the IC50 turned out to be 0.414 µM in assay [1], 0.916 µM at D(2) dopamine receptor and 0.006 µM in assay [2].
Turning to `CC1(C)SCN(CCCCN2CCN(c3cn(-c4ccc(F)cc4)c4ccccc34)CC2)C1=O`, the IC50 in assay [1] was 0.053 µM; at D(2) dopamine receptor, 0.131 µM; in assay [2], 2.33 µM. Further, in assay [3], the 50% effect level (ED50) was put at a dose of 7.1 mg/kg.
For `Cc1cccc(N2CCN(CCCCN3CSCC3=O)CC2)c1`, the IC50 on D(2) dopamine receptor came to 12.6 µM; in assay [2], 0.14 µM.
In the case of `CC1(C)SCC(=O)N1CCCCN1CCN(c2nsc3ccccc23)CC1`, the IC50 came out at 0.012 µM in assay [1], 0.193 µM on D(2) dopamine receptor and 0.007 µM in assay [2].
For the compound `COc1ccccc1N1CCN(CCCCN2CSC3(CCCC3)C2=O)CC1`, the IC50 in assay [1] was found to be 0.492 µM; at D(2) dopamine receptor, 0.15 µM; in assay [2] it was 0.002 µM.
Take `O=C1N(CCCCN2CCN(c3csc4ccccc34)CC2)CSC12CCCC2`: the IC50 in assay [1] came to 0.016 µM; at D(2) dopamine receptor it was 0.244 µM; in assay [2], 0.002 µM.
As for `CC1SC2(CCCC2)C(=O)N1CCCCN1CCN(c2csc3cc(Cl)ccc23)CC1` (centres undefined), the IC50 is 0.58 µM in assay [1], 0.611 µM on D(2) dopamine receptor and 0.776 µM in assay [2].
On to `CC1(C)SCN(CCCCN2CCN(c3ccc4ccccc4n3)CC2)C1=O`, for which the values for the IC50 in assay [1] and in assay [2] were 0.446 µM and 0.153 µM, respectively.
For the compound `CC(C)(O)C1SCN(CCCCN2CCN(c3nsc4ccccc34)CC2)C1=O` (centres undefined), the results for the IC50 (in assay [1]; at D(2) dopamine receptor; in assay [2]) were 0.0189 µM, 0.029 µM and 0.012 µM, respectively. Besides, the ED50 in assay [3] is 2.3 mg/kg.
Take `CC1(C)SCN(CCCCN2CCN(c3cc4ccccc4cn3)CC2)C1=O`: the IC50 in assay [1] was determined as 0.085 µM; at D(2) dopamine receptor it was 8.43 µM; in assay [2], 0.629 µM.
Taken in the same sequence, the figures for `COc1ccccc1N1CCN(CCCCN2CSC(C)(C)C2=O)CC1` were 0.588 µM, 0.548 µM and 0.011 µM.
In turn, `Cc1cccc(N2CCN(CCCCN3CSC(C)(C)C3=O)CC2)c1` had an IC50 in assay [2] of 0.012 µM.
`Cc1nc2n(c(=O)c1CCN1CCC(c3noc4cc(F)ccc34)CC1)CCCC2` [RISPERIDONE] registered an ED50 in assay [3] of 3.2 mg/kg.
Take `O=C1CSCN1CCCCN1CCN(c2ccc3ccccc3n2)CC1`: the figures for the IC50 in assay [1] and in assay [2] were 0.641 µM and 0.332 µM, respectively.
For the compound `CC1SC(C)(C)C(=O)N1CCCCN1CCN(c2cn(-c3ccccc3)c3cc(F)ccc23)CC1` (centres undefined), the IC50 in assay [1] was 0.119 µM; at D(2) dopamine receptor, 1.09 µM; in assay [2], 8.08 µM.
In assay [1], `O=C1N(CCCCN2CCN(C3=NS(=O)(=O)c4ccccc43)CC2)CSC12CCCC2` registered an IC50 of over 20 µM.
As to `CC1(C)SC(C)(C)N(CCCCN2CCN(c3nsc4ccccc34)CC2)C1=O`, the values for the IC50 (in assay [1]; on D(2) dopamine receptor; in assay [2]) were 0.0035 µM, 0.201 µM and 0.017 µM, respectively.
Take `Cc1cc2c(s1)Nc1ccccc1N=C2N1CCN(C)CC1` [OLANZAPINE]: in assay [1], the IC50 is 0.047 µM.
In assay [2], `O=C1CSCN1CCCCN1CCN(c2ccc(F)cc2)CC1` came in with an IC50 of 0.14 µM.
With `O=C1CSCN1CCCCN1CCN(c2nc3ccccc3s2)CC1`, the IC50 in assay [1] turned out to be 8.42 µM; in assay [2] it was 0.367 µM.
Regarding `CC1(C)SCC(=O)N1CCCCN1CCN(c2cccc(C(F)(F)F)c2)CC1`, the IC50 on D(2) dopamine receptor was 1.13 µM.
Consider `Cc1ccccc1N1CCN(CCCCN2CSCC2=O)CC1`, for which the IC50 was found to be 1.61 µM at D(2) dopamine receptor and 0.061 µM in assay [2].
Taken in the same sequence, the figures for `COc1cccc(N2CCN(CCCCN3CSCC3=O)CC2)c1` were 7.49 µM and 0.139 µM.
Consider `Cc1ccccc1N1CCN(CCCCN2CSC(C)(C)C2=O)CC1`, for which the IC50 in assay [1] is 0.569 µM; at D(2) dopamine receptor, 1.77 µM; in assay [2], 0.013 µM.
The matching figures for `CC1SC(C)(C)C(=O)N1CCCCN1CCN(c2csc3cc(Cl)ccc23)CC1` (centres undefined): 1.54 µM, 4.73 µM and 0.855 µM.
With `CC1SCC(=O)N1CCCCN1CCN(c2cccc(Cl)c2)CC1` (centres undefined), the values for the IC50 (at D(2) dopamine receptor; in assay [2]) were 2.23 µM and 0.01 µM, respectively.
Consider `O=C1N(CCCCN2CCN(c3cn(-c4ccccc4)c4ccccc34)CC2)CSC12CCCCC2`, for which the values for the IC50 (in assay [1]; at D(2) dopamine receptor) were 0.045 µM and 0.467 µM, respectively. In assay [3], the 50% effect level (ED50) was put at a dose of 27.4 mg/kg.
In the case of `O=C1N(CCCCN2CCN(c3cn(-c4ccc(F)cc4)c4ccccc34)CC2)CSC12CCCCC2`, the IC50 in assay [1] was 0.142 µM; on D(2) dopamine receptor, 0.018 µM; in assay [2], 9.03 µM.
Consider `CSc1cccc(N2CCN(CCCCN3C(=O)CSC3(C)C)CC2)c1`, for which the IC50 worked out at 0.503 µM in assay [1], 2.43 µM on D(2) dopamine receptor and 0.009 µM in assay [2].
For the compound `CC1(C)SCN(CCCCN2CCN(c3cccc(C(F)(F)F)c3)CC2)C1=O`, the IC50 turned out to be 0.09 µM in assay [1], 1.64 µM at D(2) dopamine receptor and 0.007 µM in assay [2].
Consider `CC1(C)SCN(CCCCN2CCN(c3nsc4ccccc34)CC2)C1=O`, for which the IC50 in assay [1] was 0.001 µM; in assay [2] it was 0.008 µM. Further, in assay [3], the ED50 stood at 8.9 mg/kg.
Compound `O=C1C(CC(F)(F)F)SCN1CCCCN1CCN(c2nsc3ccccc23)CC1` (centres undefined) showed an ED50 in assay [3] of 3.3 mg/kg. The half-maximal inhibitory concentration (IC50) at D(2) dopamine receptor amounted to 0.136 µM; in assay [2], 0.003 µM.
